Reference: US20020128295A1, “Use of pyridoxamine for the treatment and inhibition of obesity-related complications” (priority 2000, published 2002)
Marks after values point to notes of the source that are not given here.

What was measured:
[1] = system: streptozotocin (STZ)-induced diabetic rat; conditions: earlier study, cited from earlier work
[2] = system: Zucker obese (fa/fa) rats; assay: Renal function: urinary protein, albumin, plasma creatinine, urine volume; assay type: in vivo, rat
Method: All experiments were carried out in accordance with the regulations of the Institutional Animal Care and Use Committee of the University of South Carolina. Female Zucker obese (fa/fa) rats 6 weeks old, (n=14) and lean (LN) littermates (Fa/fa), also 6 weeks old (n=7) were purchased from Charles River Laboratories (Wilmington, Mass.). The fa/fa rats were divided randomly into two groups of 7 each, untreated fatty control (FC) and PM-treated (FPM) animals, the latter group receiving 2 g PM/L in the drinking water. […] All animals were housed individually with a light dark cycle of 12 hours each, and had free access to food and water. Progression of renal disease was assessed by measurements of plasma creatinine and urinary albumin and total urinary protein. Plasma creatinine concentration was measured by the Jaffe picric acid procedure, using Sigma kit #555-A. For urine collections, rats were housed in metabolic rat cages for 24 hr with free access to food and water. Several drops of toluene were added to the urine collection beaker to inhibit microbial growth. Urinary albumin was quantified by an ELISA assay. Rabbit antiserum to rat albumin and horseradish peroxidase (HRP)-conjugated goat anti-rabbit IgG were purchased from ICN Biomedical Research Products, Costa Mesa, Calif. Briefly, wells were coated with 50 ng of rat albumin (Sigma, St. Louis) in 0.1 M sodium carbonate buffer, pH 10.4, overnight at 4° C. […] After washing, horseradish peroxidase-conjugated goat anti-rabbit IgG (200 μL) was applied for 1 h at 25° C. with shaking, and the plate was developed with 200 μL of ABTS-reagent (2,2′-azino-bis(3-ethylbenzthiazoline-6-sulfonic acid) for 45 min at room temperature. Absorbance was measured at 405 nm. Total urinary protein was measured using the Sigma Microprotein-PR Kit. Based on preliminary experiments in which known amounts of PM were added to urine, PM increased the final absorbance readings in the protein assay, so that a correction (<10%) was applied for the PM content of the urine.

[3] = system: Zucker obese (fa/fa) rats; assay: Dyslipidemia: plasma triglycerides and total cholesterol; assay type: in vivo, rat
Method: (§1) All experiments were carried out in accordance with the regulations of the Institutional Animal Care and Use Committee of the University of South Carolina. Female Zucker obese (fa/fa) rats 6 weeks old, (n=14) and lean (LN) littermates (Fa/fa), also 6 weeks old (n=7) were purchased from Charles River Laboratories (Wilmington, Mass.). The fa/fa rats were divided randomly into two groups of 7 each, untreated fatty control (FC) and PM-treated (FPM) animals, the latter group receiving 2 g PM/L in the drinking water. […] All animals were housed individually with a light dark cycle of 12 hours each, and had free access to food and water. Blood was obtained from the tail vein, using heparinized microhematocrit tubes, and plasma recovered by centrifugation at 4° C. All assays for proteins and metabolites in plasma and urine were performed by microplate adaptations of current methods, using a Wallac Victor Model 1420 multilabel plate reader (Wallac, Inc., Gaithersburg, Md.). […] Plasma glucose was measured using the Trinder assay Kit (Sigma #315) and total glycated hemoglobin (GlcHb) by boronate affinity chromatography (Sigma kit #442-B). Total plasma triglycerides and cholesterol were analyzed by enzymatic, calorimetric, end-point assays using Sigma kits for triglycerides (#37, GPO Trinder) and total cholesterol (#352). Insulin was measured using a direct sandwich ELISA for rat insulin (ALPCO, Windham, N.H.). Plasma PM concentration was measured by reverse phase high performance liquid chromatography (RP-HPLC) with fluorescence detection, using 293/393 nm excitation and emission wavelengths.

[4] = system: Zucker obese (fa/fa) rats; assay: Glycation (fructoselysine) of skin collagen by SIM-GC/MS; assay type: in vivo, rat; conditions: insoluble skin collagen
Method: (§2) All experiments were carried out in accordance with the regulations of the Institutional Animal Care and Use Committee of the University of South Carolina. Female Zucker obese (fa/fa) rats 6 weeks old, (n=14) and lean (LN) littermates (Fa/fa), also 6 weeks old (n=7) were purchased from Charles River Laboratories (Wilmington, Mass.). The fa/fa rats were divided randomly into two groups of 7 each, untreated fatty control (FC) and PM-treated (FPM) animals, the latter group receiving 2 g PM/L in the drinking water. […] All animals were housed individually with a light dark cycle of 12 hours each, and had free access to food and water. The insoluble fraction of skin collagen was prepared by scraping the skin with a single-edged razor blade to remove hair and adventitious tissue, followed by a series of extractions with 0.5 M NaCl, 0.5 M acetic acid and chloroform/methanol (2:1 v/v), as described previously (Dyer et al., J. Clin. Invest. 91:2463-2469 (1993)). Fructoselysine (FL), a measure of glycation of collagen, and CML, CEL, MDA-lysine and HNE-lysine were assayed by isotope dilution, selected ion monitoring gas chromatography—mass spectrometry (SIM-GC/MS), and pentosidine by RP-HPLC, all as described previously (Requena et al., Biochem. J. 322:317-325 (1997)). Levels of AGEs/ALEs were expressed relative to the FL content of the collagen in order to correct for differences in mean age of the protein (see Table 1 and Discussion, below). Collagen fluorescence (Ex=370 nm, Em=440 nm) was measured after solubilization with pepsin (20 μg/mL in 0.5 M acetic, 24 hr at 37° C.), and was normalized to the hydroxyproline content of the collagen, measured as described by Stegemann and Stalder (Clin. Chim. Acta 18:267-273 (1967)).

[5] = system: Sprague-Dawley and Zucker rats; conditions: rat, in vivo
Method: (§3) All experiments were carried out in accordance with the regulations of the Institutional Animal Care and Use Committee of the University of South Carolina. Female Zucker obese (fa/fa) rats 6 weeks old, (n=14) and lean (LN) littermates (Fa/fa), also 6 weeks old (n=7) were purchased from Charles River Laboratories (Wilmington, Mass.). The fa/fa rats were divided randomly into two groups of 7 each, untreated fatty control (FC) and PM-treated (FPM) animals, the latter group receiving 2 g PM/L in the drinking water. […] All animals were housed individually with a light dark cycle of 12 hours each, and had free access to food and water.

[6] = system: Zucker obese (fa/fa) rats; assay: Chemical modifications (AGE/ALEs) and fluorescence in skin collagen; assay type: in vivo, rat
Method: as §2

[7] = system: Zucker obese (fa/fa) rats; assay: Fasting plasma insulin (ELISA); assay type: in vivo, rat
Method: as §1, with “Blood was obtained from the tail vein, using heparinized microhematocrit tubes, and plasma recovered by centrifugation at 4° C.” left out, “Plasma PM concentration was measured by reverse phase high performance liquid chromatography (RP-HPLC) with fluorescence detection, using 293/393 nm excitation and emission wavelengths.” left out

[8] = system: Zucker obese (fa/fa) rats; assay: Vascular changes in aorta and coronary arteries at necropsy; assay type: in vivo, rat
Method: All experiments were carried out in accordance with the regulations of the Institutional Animal Care and Use Committee of the University of South Carolina. Female Zucker obese (fa/fa) rats 6 weeks old, (n=14) and lean (LN) littermates (Fa/fa), also 6 weeks old (n=7) were purchased from Charles River Laboratories (Wilmington, Mass.). The fa/fa rats were divided randomly into two groups of 7 each, untreated fatty control (FC) and PM-treated (FPM) animals, the latter group receiving 2 g PM/L in the drinking water. […] All animals were housed individually with a light dark cycle of 12 hours each, and had free access to food and water. Blood was drawn from anaesthetized (isoflurane) rats by heart puncture and transferred into heparinized vacutainer tubes on ice. Plasma was separated from whole blood within 30 min by centrifugation in a refrigerated benchtop centrifuge; aliquots of plasma were stored at −70° C. until time of analysis. Rats were then killed by over-anesthetization, and liver and kidneys were removed, and both organs rinsed in phosphate buffered saline, and weighed. One kidney was cut in half transversely, and one half was removed for fixation (buffered formalin) for light microscopy. The remaining kidney and liver samples were frozen at −70° C. […]

[9] = system: advanced lipoxidation end-products (ALEs); conditions: lipid peroxidation reactions in vitro; cited from earlier work
[10] = system: Zucker obese (fa/fa) rats; assay: Systolic blood pressure by tail cuff plethysmography; assay type: in vivo, rat; conditions: initial 125-130 mm Hg at week 5; FC rose to 165 mm Hg
Method: as §3, with “and water. Blood pressure measurements were initiated at week 5 in the experiment after acclimating the animals to the apparatus, and were carried out the week following blood and urine collection. Measurements were made by tail cuff plethysmography using a Kent Scientific XBP instrument.” for “and water.”

[11] = system: Zucker obese (fa/fa) rats; assay: Plasma glucose and total glycated hemoglobin (glycemic control); assay type: in vivo, rat; conditions: for Plasma glucose: mean ± SD, 7 animals
Method: as §1

[12] = Week 0, 2 g PM/L in drinking water
[13] = Week 16, 2 g PM/L in drinking water
[14] = Week 32, 2 g PM/L in drinking water

In the case of `Cc1ncc(CO)c(CN)c1O` [PM, Pyridoxamine], the “Albuminuria and plasma creatinine” value ([1]; STZ-induced diabetic rat) is listed as “marked reduction in albuminuria and plasma creatinine”, the “Development of renal disease” value ([1]; STZ-induced diabetic rat) is listed as “significantly inhibited the development of renal disease” and the “Effect on glycemic control” value ([1]; STZ-induced diabetic rat) is listed as “no effect on glycemic control”. For the same compound, the Reduction in hyperlipidemia ([1]; STZ-rat) was > 50%, the “Difference in urine volume between FC and FPM animals” value ([2]; at any point in the study) was “no significant differences in urine volume” and the Urinary volume ([2]; end of the study) was 27.0 mL/day. For the same compound, the “Effect on development of proteinuria” value ([2]; fa/fa rat, confirmed by plasma creatinine) was “impressive protection against development of proteinuria”, the Plasma cholesterol ([3]; FC rats approximately 250 mg/dL) was ~150 mg/dL and the “Plasma triglycerides relative to the level in LN animals” value ([3]; after 10 weeks) was “about three”. For the same compound, the “Plasma triglycerides relative to the values observed in FC animals” value ([3]; after 10 weeks) was “less than 50%”, the “Effect on dyslipidemia, both triglycerides and cholesterol” value ([3]; fa/fa rat) was “significantly reduced dyslipidemia” and the “Plasma cholesterol, higher than in LN animals” value ([3]; rat, in vivo) was ~50%. The “Glycation of Skin Collagen FL” value ([4]; Week 0) was 3.5 ± 0.2 mmol/mol lysine, the “Glycation of Skin Collagen FL” value ([4]; Week 11) was 3.0 ± 0.1 mmol/mol lysine and the “Glycation of Skin Collagen FL” value ([4]; Week 32) was 2.3 ± 0.3 mmol/mol lysine. For the same compound, the “Tolerability of the dose” value [5] was “well tolerated”, the “HNE-lysine detectability in skin collagen” value ([6]; 8 months) was “not detectable” and the “MDA-lysine trace amounts in skin collagen” value ([6]; 8 months, in 3 of 7 animals) was < 2 μmol/mol FL. The “MDA-Lys in skin collagen” value ([6]; Week 32) was “Trace”, the “Fluorescence of skin collagen” value ([6]; Week 32, necropsy samples, Ex=370 nm, Em=440 nm) was 0.05 ± 0.02 Arbitrary Units/mol FL and the “Number of samples in which MDA-lysine was measurable” value ([6]; Week 32, of 7 animals) was “(3/7)^d”. For the same compound, the “Effect on increase in CML and CEL in skin collagen” value ([6]; fa/fa rats) was “inhibited the increase in CML and CEL”, the “Effect on increase in Maillard-type collagen fluorescence” value ([6]; necropsy samples, FC 2-fold higher than LN) was “prevented this increase” and the “Effect on increase in pentosidine in skin collagen” value ([6]; through week 11) was “effective in limiting the increase in pentosidine”. For the same compound, the “MDA-lysine detectability in skin collagen” value ([6]; until 8 months) was “no MDA-lysine was detectable”, the “Significance of differences in pentosidine between FC and FPM rats” value ([6]; week 32, p=0.07) was “marginal” and the Fasting plasma insulin ([7]; 32 weeks) was 7.3 ± 0.6 µg/L. The “Effect on insulin resistance” value ([7]; fa/fa animals) was “did not significantly affect insulin resistance”, the “Aorta compared with LN animals” value [8] was “indistinguishable from those of LN animals in all but one animal” and the “Changes in the aortic or coronary vasculature” value [8] was “minimal changes”. The “Inhibition of formation of advanced lipoxidation end-products (ALEs)” value [9] was “potent inhibitor”, the “Systolic blood pressure course” value [10] was “remained at initial values” and the Effect on glycemia ([11]; 32 week experiment) was “no effect on glycemia”. For the same compound, the “Glycated Hemoglobin” value [11, 12] was 6.8 ± 0.5%, the Plasma glucose [11, 12] was 6.8 ± 0.5 mM and the “Glycated Hemoglobin” value [11, 13] was 6.5 ± 0.3%. The Plasma glucose [11, 13] was 6.9 ± 0.6 mM, the “Glycated Hemoglobin” value [11, 14] was 6.8 ± 0.3% and the Plasma glucose [11, 14] was 6.8 ± 0.5 mM.
